This note sets out measurements from patent US20260060973A1, “Ophthalmic Composition for Treating Non-Infectious Inflammatory Diseases” (VIVAVISION BIOTECH LTD., priority 2023, published 2026).

The nature of series [1]: Solubility in water. It counts as physicochemical.
In series [2] the target is Janus kinase 1 (JAK1) (Homo sapiens, UniProt P23458). Put plainly: Mechanism of action of VVN461. The class given is biochemical. The source says: (§1) JAK- or TYK-dependent cytokines are associated with non-infectious inflammatory diseases (e.g., uveitis or other ocular diseases), which is a potential therapeutic target for immune-mediated uveitis. VVN461 can target both Janus kinase 1 (JAK1) and tyrosine kinase 2 (TYK2), target JAK/TYK-dependent cytokines, and inhibit Janus kinase (JAK)/signal transducer and activation of transcription (STAT) pathway, and thus can be used for the treatment of non-infectious inflammatory diseases such as uveitis. […] These phosphorylated receptor residues that act as binding sites for STAT proteins are activated by the phosphorylation of the JAKs, so that STAT proteins are dimerized and translocated to the nucleus of the cell, thereby bind to specific DNA sites and regulate gene expression, which in turn leads to inflammation. In contrast, VVN461 of the present application can target JAK/TYK-dependent cytokines and inhibit the JAK/STAT pathway, and thus can be used for the treatment of non-infectious inflammatory diseases such as uveitis.

In series [3] the target is tyrosine kinase 2 (TYK2) (Homo sapiens, UniProt P29597). As to the kind of experiment: Mechanism of action of VVN461. It counts as biochemical.
From the text: as §1

Structures are written as SMILES. “Also recorded” adds a separate entry of the source.

Sequence of Janus kinase 1 (JAK1) (P23458 whole entry, species assumed): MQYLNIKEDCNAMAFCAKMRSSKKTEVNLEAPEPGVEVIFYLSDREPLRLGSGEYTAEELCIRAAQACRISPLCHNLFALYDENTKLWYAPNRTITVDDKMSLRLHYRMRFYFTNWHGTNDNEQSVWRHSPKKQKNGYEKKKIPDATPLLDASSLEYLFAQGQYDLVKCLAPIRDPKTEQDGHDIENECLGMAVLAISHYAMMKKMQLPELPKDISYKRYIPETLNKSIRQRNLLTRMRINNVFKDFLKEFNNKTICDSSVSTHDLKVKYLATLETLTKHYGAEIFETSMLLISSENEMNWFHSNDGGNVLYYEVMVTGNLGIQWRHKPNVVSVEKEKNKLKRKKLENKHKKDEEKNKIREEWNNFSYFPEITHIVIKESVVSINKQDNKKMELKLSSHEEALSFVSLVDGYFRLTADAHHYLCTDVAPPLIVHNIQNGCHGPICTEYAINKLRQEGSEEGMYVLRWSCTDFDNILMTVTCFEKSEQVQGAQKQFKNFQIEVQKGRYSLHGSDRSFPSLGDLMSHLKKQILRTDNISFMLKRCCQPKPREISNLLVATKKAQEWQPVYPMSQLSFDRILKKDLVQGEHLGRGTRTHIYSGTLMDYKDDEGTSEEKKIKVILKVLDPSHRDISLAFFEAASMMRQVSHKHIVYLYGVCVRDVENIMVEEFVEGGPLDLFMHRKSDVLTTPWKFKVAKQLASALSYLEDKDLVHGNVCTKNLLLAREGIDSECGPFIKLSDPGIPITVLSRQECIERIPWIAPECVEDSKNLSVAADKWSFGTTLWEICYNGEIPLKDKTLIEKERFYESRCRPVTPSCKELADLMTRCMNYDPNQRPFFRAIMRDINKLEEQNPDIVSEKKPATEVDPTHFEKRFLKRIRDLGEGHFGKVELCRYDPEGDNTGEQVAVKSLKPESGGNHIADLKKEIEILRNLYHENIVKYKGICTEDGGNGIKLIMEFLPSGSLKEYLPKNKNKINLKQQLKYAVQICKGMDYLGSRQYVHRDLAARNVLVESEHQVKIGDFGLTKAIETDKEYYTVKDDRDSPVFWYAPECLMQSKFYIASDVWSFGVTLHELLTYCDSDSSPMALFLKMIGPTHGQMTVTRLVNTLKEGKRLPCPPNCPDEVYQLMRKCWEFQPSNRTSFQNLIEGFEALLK
Sequence of tyrosine kinase 2 (TYK2) (P29597 whole entry, species assumed): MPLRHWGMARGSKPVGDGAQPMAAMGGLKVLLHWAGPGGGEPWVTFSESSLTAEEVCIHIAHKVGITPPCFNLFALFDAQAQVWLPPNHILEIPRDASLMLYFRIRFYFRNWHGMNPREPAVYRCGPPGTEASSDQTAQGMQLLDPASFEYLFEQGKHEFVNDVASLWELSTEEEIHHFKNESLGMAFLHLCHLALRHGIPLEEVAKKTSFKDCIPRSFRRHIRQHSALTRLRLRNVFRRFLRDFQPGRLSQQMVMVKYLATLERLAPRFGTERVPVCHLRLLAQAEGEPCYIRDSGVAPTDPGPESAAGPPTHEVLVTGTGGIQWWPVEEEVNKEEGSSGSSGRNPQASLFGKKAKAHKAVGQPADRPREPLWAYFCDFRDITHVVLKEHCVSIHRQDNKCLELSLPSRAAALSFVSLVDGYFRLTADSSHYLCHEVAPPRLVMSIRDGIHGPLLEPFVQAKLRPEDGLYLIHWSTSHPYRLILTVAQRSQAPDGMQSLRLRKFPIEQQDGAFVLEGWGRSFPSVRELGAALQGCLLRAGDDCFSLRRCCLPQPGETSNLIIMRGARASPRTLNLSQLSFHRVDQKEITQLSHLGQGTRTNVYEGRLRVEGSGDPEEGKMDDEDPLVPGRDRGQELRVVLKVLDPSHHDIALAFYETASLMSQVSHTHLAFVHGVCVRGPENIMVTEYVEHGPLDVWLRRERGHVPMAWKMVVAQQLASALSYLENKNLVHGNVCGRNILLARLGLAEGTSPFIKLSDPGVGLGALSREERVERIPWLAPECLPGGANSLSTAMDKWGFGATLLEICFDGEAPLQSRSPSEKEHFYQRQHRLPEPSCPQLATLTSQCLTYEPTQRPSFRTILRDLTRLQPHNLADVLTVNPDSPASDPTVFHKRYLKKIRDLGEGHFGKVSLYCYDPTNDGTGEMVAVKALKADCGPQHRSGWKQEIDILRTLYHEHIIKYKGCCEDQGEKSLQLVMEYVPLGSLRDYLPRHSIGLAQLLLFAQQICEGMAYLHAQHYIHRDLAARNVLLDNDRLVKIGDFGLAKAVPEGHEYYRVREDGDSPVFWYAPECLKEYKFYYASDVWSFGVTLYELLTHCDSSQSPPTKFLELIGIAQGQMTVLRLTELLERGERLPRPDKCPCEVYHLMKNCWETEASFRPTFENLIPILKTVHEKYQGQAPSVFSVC

As for `C[C@@H](O)c1nc2cnc3[nH]ccc3c2n1N1CCC(CC#N)CC1` [VVN461, (R)-2-(1-(2-(1-hydroxyethyl)imidazo[4,5-d]pyrrolo[2,3-b]pyridin-1(6H)-yl)piperidin-4-yl)acetonitrile], the solubility entry in series [1] is “practically insoluble in water; also recorded: low water solubilities”. Also, the JAK1 inhibition result in series [2] is listed as “dual JAK1/TYK2 inhibitor”. Further, the TYK2 inhibition entry in series [3] was “dual JAK1/TYK2 inhibitor”.
